Values after ≈ are worked out from the molar mass of the structure shown.
System: Mycobacterium tuberculosis
Test: Antimicrobial activity against Mycobacterium tuberculosis H37Rv ATCC 27294 after 5 days by microdilution method
Assay type: functional
Conditions: H37Rv ATCC 27294, 120 h
`COCCOc1ccc(-c2ccc(COc3ncccc3C(=O)N3CCC(O)C3)nc2)c(C)c1` (centres undefined) gave an MIC of over 75 µM. `COCCOc1ccc(-c2ccc(COc3ncccc3C(=O)NCCO)nc2)c(C)c1` gave an MIC of 4.5 µM (≈ 1.97 µg/mL). Work on `CNS(=O)(=O)c1cccnc1OCc1ccc(-c2ccc(OCCOC)cc2C)cn1` yielded an MIC of 50 µM (≈ 22.2 µg/mL). `COc1ccc(-c2ccc(COc3ncccc3C(N)=O)cc2)c(C)n1` showed an MIC of over 100 µM. `COCCOc1ccc(-c2ccc(COc3nccc(OC)c3C(N)=O)nc2)c(C)c1` showed an MIC of 6.2 µM (≈ 2.63 µg/mL). Molecule `COCCOc1ccc(-c2ccc(COc3nccnc3C(N)=O)nc2)c(C)c1` has an MIC of 40.5 µM (≈ 16 µg/mL). Work on `COCCOc1ccc(-c2ccc(COc3ncccc3C(=O)N(C)C)nc2)c(C)c1` yielded an MIC of over 75 µM. `CCN(CC)CCOc1ccc(-c2ccc(COc3ncccc3C(N)=O)nc2)c(C)c1` showed an MIC of over 100 µM. In the case of `COc1ccc(-c2ccc(COc3ncccc3C(N)=O)nc2)c(F)c1`, the MIC is reported as 16.9 µM (≈ 5.97 µg/mL). `COCCOc1ccc(-c2cnc(COc3ncccc3C(N)=O)nc2)c(Cl)c1` gave an MIC of 0.47 µM (≈ 0.195 µg/mL). For `Cc1cc(OC[C@H]2CCCO2)ccc1-c1ccc(COc2ncccc2C(N)=O)nc1`, the MIC was 4.7 µM (≈ 1.97 µg/mL). Work on `CNC(=O)c1cccnc1OCc1ccc(-c2ccc(OCCOC)cc2C)cn1` yielded an MIC of 1.2 µM (≈ 0.489 µg/mL). Work on `COc1ccc(-c2ccc(COc3ncccc3C(N)=O)nc2)c(C(F)(F)F)c1` yielded an MIC of 39.7 µM (≈ 16 µg/mL).

System: not listed separately
Test: Cytotoxicity against human THP1 cells after 24 hrs by resazurin assay
Assay type: cell-based, THP-1
Conditions: read-out: MIC
`COCCOc1ccc(-c2ccc(COc3ncccc3C(=O)N3CCC(O)C3)nc2)c(C)c1` (centres undefined) gave an MCC at 24 h of over 50 µM. `COCCOc1ccc(-c2ccc(COc3ncccc3C(=O)NCCO)nc2)c(C)c1` gave an MCC at 24 h of over 50 µM. In the case of `CNS(=O)(=O)c1cccnc1OCc1ccc(-c2ccc(OCCOC)cc2C)cn1`, the MCC at 24 h is reported as over 50 µM. For `COc1ccc(-c2ccc(COc3ncccc3C(N)=O)cc2)c(C)n1`, the MCC at 24 h was over 50 µM. Molecule `COCCOc1ccc(-c2ccc(COc3nccc(OC)c3C(N)=O)nc2)c(C)c1` has an MCC at 24 h of over 50 µM. With `COCCOc1ccc(-c2ccc(COc3nccnc3C(N)=O)nc2)c(C)c1` the MCC at 24 h was over 50 µM. Molecule `COCCOc1ccc(-c2ccc(COc3ncccc3C(=O)N(C)C)nc2)c(C)c1` has an MCC at 24 h of over 50 µM. `COc1ccc(-c2ccc(COc3ncccc3C(N)=O)nc2)c(F)c1` showed an MCC at 24 h of over 50 µM. In the case of `COCCOc1ccc(-c2cnc(COc3ncccc3C(N)=O)nc2)c(Cl)c1`, the MCC at 24 h is reported as over 250 µM. In the case of `Cc1cc(OC[C@H]2CCCO2)ccc1-c1ccc(COc2ncccc2C(N)=O)nc1`, the MCC at 24 h is reported as over 50 µM. `CNC(=O)c1cccnc1OCc1ccc(-c2ccc(OCCOC)cc2C)cn1` showed an MCC at 24 h of over 50 µM.

— ChEMBL document CHEMBL3286119, “Biarylmethoxy Nicotinamides As Novel and Specific Inhibitors of Mycobacterium tuberculosis” (ACS Med Chem Lett, 2014)
